Laboratory results as given in ChEMBL document CHEMBL1125509, “Synthesis and biological activity of CCK heptapeptide analogues. Effects of conformational constraints and standard modifications on receptor subtype selectivity, functional activity in vitro, and appetite suppression in vivo” (J Med Chem, 1992).
Calls of active or inactive are those of the source. The calls are words filed in the database; no cut-off is given here. *1 amine or outer side, *2 acyl side, *3 side chain or, on linkers, in order; H or OH if unused. Where a SMILES comes first, the peptide text is derived from it. [ ]: non-standard residue; d: D form. The star is where a group is joined. Hydrocinnamoyl(4-OSO3H) = O=C(CCc1ccc(OS(=O)(=O)O)cc1)*; X2 = O=C([C@@H]1CC(OS(=O)(=O)O)CN1[*:1])[*:2]; X5 = CCC[C@H]1CCN([*:1])[C@@H]1C(=O)[*:2]; X4 = O=C(c1ccc2cc(OS(=O)(=O)O)ccc2c1)*; X1 = CCCC1CCN([*:1])[C@@H]1C(=O)[*:2]; X6 = O=C(/C=C/c1ccc(OS(=O)(=O)O)cc1)*; X3 = O=C(/C(=C/c1ccccc1)N[*:1])[*:2]; NMeF = CN[C@@H](Cc1ccccc1)C(=O)O; NMeD = CN[C@@H](CC(=O)O)C(=O)O; NMeL = CN[C@@H](CC(C)C)C(=O)O; Nle = CCCC[C@H](N)C(=O)O; Ava = NCCCCC(=O)O

Columns and labels:
[1] = biological target: T1, Cholecystokinin receptor type A (Cavia porcellus, UniProt Q63931); assay: Evaluated in vitro for its binding affinity towards cholecystokinin type A receptor of guinea pig pancreas
T1 sequence (Q63931 whole entry): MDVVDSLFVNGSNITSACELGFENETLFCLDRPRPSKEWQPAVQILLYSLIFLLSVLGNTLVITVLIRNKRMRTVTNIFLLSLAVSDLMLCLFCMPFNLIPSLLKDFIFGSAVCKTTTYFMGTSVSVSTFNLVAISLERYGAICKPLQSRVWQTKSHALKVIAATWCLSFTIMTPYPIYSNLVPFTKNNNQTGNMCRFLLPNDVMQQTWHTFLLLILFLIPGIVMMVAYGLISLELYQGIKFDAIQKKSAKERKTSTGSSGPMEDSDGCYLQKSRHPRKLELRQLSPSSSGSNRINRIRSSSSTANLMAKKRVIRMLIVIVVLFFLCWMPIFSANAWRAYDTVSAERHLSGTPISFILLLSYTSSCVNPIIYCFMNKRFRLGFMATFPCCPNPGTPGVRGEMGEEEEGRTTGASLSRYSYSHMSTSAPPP

[2] = biological target: T2, Cholecystokinin receptor type A (Cavia porcellus) (UniProt Q63931); assay: Ratio of binding affinities for CCK-A receptor of guinea pig pancreas (IC50(nM)) to CCK-B receptor of guinea pig cortex (IC50(nM)); type: tissue-based
T2 sequence (whole entry): T1 sequence (Q63931 whole entry)

[3] = biological target: Cholecystokinin receptor (Rattus norvegicus) (UniProt P30551+P30553); assay: Evaluated for effective dose required for suppression of food intake in rat (0-60 min); type: functional
[4] = tested on: Rattus norvegicus; assay: Compound was evaluated for % suppression (at 30 nmol/kg) of food intake in rat (360-420 min); not significant; type: functional, organism-based
[5] = tested on: Cholecystokinin receptor type A (Cavia porcellus); assay: Evaluated in vitro for maximal stimulatory activity for PI hydrolysis relative to CCK-8 in guinea pig tissue
[6] = biological target: Cholecystokinin receptor type A (Cavia porcellus); assay: Evaluated in vitro for maximal stimulatory activity for amylase release relative to CCK-8 in guinea pig tissue
[7] = tested on: Cholecystokinin receptor type A (Cavia porcellus); assay: Ratio for CCK-A receptor of guinea pig pancreas (IC50(nM)) to CCK-B receptor of guinea pig cortex (IC50(nM))
[8] = species on record: Cavia porcellus; assay: In vitro maximal stimulatory activity for amylase release relative to CCK-8 in guinea pig tissue at 10 uM; type: functional
[9] = species on record: Cavia porcellus; assay: In vitro maximal stimulatory activity for amylase release relative to CCK-8 in guinea pig tissue at 20 nM; type: functional
[10] = species on record: Cavia porcellus; assay: In vitro maximal stimulatory activity for amylase release relative to CCK-8 in guinea pig tissue at 5 nM; type: functional
[11] = species on record: Cavia porcellus; assay: In vitro maximal stimulatory activity for amylase release relative to CCK-8 in guinea pig tissue at 3 uM; type: functional
[12] = species on record: Cavia porcellus; assay: (§1) Compound (10e-4 M) was evaluated in vitro for maximal stimulatory activity for PI hydrolysis relative to CCK-8 in guinea pig tissue; type: functional
[13] = tested on: Rattus norvegicus; assay: Compound was evaluated for % suppression (at 30 nmol/kg) of food intake in rat (360-420 min); type: functional
[14] = as §1; type: functional

Row | Compound | IC50 [1] [nM] | Max response [5] [%] | EC50 [6] [nM] | Ratio [7] | other results
1 | CCCC[C@H](NC(=O)[C@H](Cc1c[nH]c2ccccc12)NC(=O)CN1CC[C@H](NC(=O)CCc2ccc(OS(=O)(=O)O)cc2)C1=O)C(=O)N[C@@H](CC(=O)O)C(=O)N[C@@H](Cc1ccccc1)C(N)=O | 130 | 86 | 71 | 9 | 
2 | CCCC[C@H](NC(=O)[C@H](Cc1c[nH]c2ccccc12)NC(=O)CNC(=O)[C@H](CC(C)C)NC(=O)CCc1ccc(OS(=O)(=O)O)cc1)C(=O)N[C@@H](CC(=O)O)C(=O)N[C@@H](Cc1ccccc1)C(N)=O ({Hydrocinnamoyl(4-OSO3H)}-LGW[Nle]DF-NH2) | 0.67 | 120 | 0.64 | 1.1 | 
3 | CCC[C@H]1CCN(C(=O)[C@H](Cc2c[nH]c3ccccc23)NC(=O)CNC(=O)[C@@H]2CCCN2C(=O)CCc2ccc(OS(=O)(=O)O)cc2)[C@@H]1C(=O)N[C@@H](CC(=O)O)C(=O)N(C)[C@@H](Cc1ccccc1)C(N)=O ({Hydrocinnamoyl(4-OSO3H)}-PGW[X5]D[NMeF]-NH2) [listing 1 of 2 here] | 7.3 |  |  |  | 
4 | CCC[C@H]1CCN(C(=O)[C@H](Cc2c[nH]c3ccccc23)NC(=O)CNC(=O)[C@@H]2CCCN2C(=O)CCc2ccc(OS(=O)(=O)O)cc2)[C@@H]1C(=O)N[C@@H](CC(=O)O)C(=O)N(C)[C@@H](Cc1ccccc1)C(N)=O ({Hydrocinnamoyl(4-OSO3H)}-PGW[X5]D[NMeF]-NH2) [listing 2 of 2 here] |  |  |  |  | Stimulation [10]: 83%
5 | CCCC[C@H](NC(=O)CCc1ccc(OS(=O)(=O)O)cc1)C(=O)NCC(=O)N[C@@H](Cc1c[nH]c2ccccc12)C(=O)N1CCC[C@H]1C(=O)N[C@@H](CC(=O)O)C(=O)N(C)[C@@H](Cc1ccccc1)C(N)=O ({Hydrocinnamoyl(4-OSO3H)}-[Nle]GWPD[NMeF]-NH2) | 81 |  |  |  | Stimulation [11]: 98%
6 | CCCC[C@H](NC(=O)CCc1ccc(OS(=O)(=O)O)cc1)C(=O)NCC(=O)N[C@@H](Cc1c[nH]c2ccccc12)C(=O)N[C@@H](CCCC)C(=O)N(C)[C@@H](CC(=O)O)C(=O)N[C@@H](Cc1ccccc1)C(N)=O ({Hydrocinnamoyl(4-OSO3H)}-[Nle]GW[Nle][NMeD]F-NH2) |  |  |  |  | Max response [12]: 100%; Supression [13]: 29%
7 | CCCC[C@H](NC(=O)CCc1ccc(OS(=O)(=O)O)cc1)C(=O)NCC(=O)N[C@@H](Cc1c[nH]c2ccccc12)C(=O)N[C@@H](CCCC)C(=O)N1CC(OS(=O)(=O)O)C[C@H]1C(=O)N[C@@H](Cc1ccccc1)C(N)=O (stereo partly specified) ({Hydrocinnamoyl(4-OSO3H)}-[Nle]GW[Nle][X2]F-NH2) |  |  |  | 0.03 | Max response [12]: 82%; ED50 [3]: > 1 µmol/kg; Supression [4]: inactive
8 | CCCC[C@H](NC(=O)CCc1ccc(OS(=O)(=O)O)cc1)C(=O)NCC(=O)N[C@@H](Cc1c[nH]c2ccccc12)C(=O)N1CCC(CCC)[C@H]1C(=O)N[C@@H](CC(=O)O)C(=O)N(C)[C@@H](Cc1ccccc1)C(N)=O (stereo partly specified) ({Hydrocinnamoyl(4-OSO3H)}-[Nle]GW[X1]D[NMeF]-NH2) |  |  |  | 14.3 | Max response [12]: 83%; ED50 [3]: 0.00877 µmol/kg; Supression [4]: inactive

The next lines start with results.

Row | IC50 [1] [nM] | Max response [5] [%] | EC50 [6] [nM] | Ratio [7] | Compound | other results
9 | 0.77 | 100 | 0.99 |  | CCCC[C@H](NC(=O)CCc1ccc(OS(=O)(=O)O)cc1)C(=O)NCC(=O)N[C@@H](Cc1c[nH]c2ccccc12)C(=O)N[C@@H](CCCC)C(=O)N[C@@H](CC(=O)O)C(=O)N[C@@H](Cc1ccccc1)C(N)=O | Ratio [2]: 1.53; ED50 [3]: 0.00398 µmol/kg; Supression [4]: inactive
10 | 150 | 52 |  | 18.5 | CCCC[C@H](NC(=O)[C@H](Cc1c[nH]c2ccccc12)NC(=O)CNC(=O)[C@@H](CCCC)NC(=O)CCc1ccc(OS(=O)(=O)O)cc1)C(=O)N[C@@H](CC(=O)O)C(=O)N[C@@H](Cc1ccccc1)C(N)=O | 
11 | 900 | 16 |  | 0.04 | CCCC[C@H](NC(=O)c1ccc2cc(OS(=O)(=O)O)ccc2c1)C(=O)NCC(=O)N[C@@H](Cc1c[nH]c2ccccc12)C(=O)N[C@@H](CCCC)C(=O)N[C@@H](CC(=O)O)C(=O)N[C@@H](Cc1ccccc1)C(N)=O (X4-[Nle]GW[Nle]DF-NH2) | Stimulation [8]: 44%
12 | 23 |  |  |  | CCCC[C@H](NC(=O)/C=C/c1ccc(OS(=O)(=O)O)cc1)C(=O)NCC(=O)N[C@@H](Cc1c[nH]c2ccccc12)C(=O)N[C@@H](CCCC)C(=O)N[C@@H](CC(=O)O)C(=O)N[C@@H](Cc1ccccc1)C(N)=O (X6-[Nle]GW[Nle]DF-NH2) | Stimulation [9]: 105%
13 | 150 | 64 | 140 | 143 | CC(C)C[C@H](NC(=O)[C@H](Cc1c[nH]c2ccccc12)NC(=O)CCCCNC(=O)CCc1ccc(OS(=O)(=O)O)cc1)C(=O)N[C@@H](CC(=O)O)C(=O)N[C@@H](Cc1ccccc1)C(N)=O ({Hydrocinnamoyl(4-OSO3H)-Ava}-WLDF-NH2) | 
14 | 140 | 80 | 15 | 625 | CCCC[C@H](NC(=O)CCc1ccc(OS(=O)(=O)O)cc1)C(=O)NCC(=O)N[C@@H](Cc1c[nH]c2ccccc12)C(=O)N(C)[C@@H](CC(C)C)C(=O)N[C@@H](CC(=O)O)C(=O)N[C@@H](Cc1ccccc1)C(N)=O ({Hydrocinnamoyl(4-OSO3H)}-[Nle]GW[NMeL]DF-NH2) | 
15 |  |  |  | 0.1 | CCCC[C@H](NC(=O)CCc1ccc(OS(=O)(=O)O)cc1)C(=O)NCC(=O)N[C@@H](Cc1c[nH]c2ccccc12)C(=O)N[C@@H](CCCC)C(=O)N[C@@H](CC(=O)O)C(=O)N(C)[C@@H](Cc1ccccc1)C(N)=O ({Hydrocinnamoyl(4-OSO3H)}-[Nle]GW[Nle]D[NMeF]-NH2) | Max response [12]: 94%; ED50 [3]: 0.00245 µmol/kg; Supression [13]: 30%
16 |  |  |  | 0.62 | CCCC[C@H](NC(=O)CCc1ccc(OS(=O)(=O)O)cc1)C(=O)NCC(=O)N[C@@H](Cc1c[nH]c2ccccc12)C(=O)N[C@@H](CCCC)C(=O)N[C@@H](CC(=O)O)C(=O)N/C(=C\c1ccccc1)C(N)=O ({Hydrocinnamoyl(4-OSO3H)}-[Nle]GW[Nle]D[X3]-NH2) | Max response [14]: 69%
